{"source": "patent US11052158B2", "about": "“Delivery of urea to cells of the macula and retina using liposome constructs” (priority 2016, dated 2021)", "key": {"[1]": {"test_system": "eyes of New Zealand white rabbits", "text": "Female New Zealand white rabbits were obtained from Western Oregon Rabbit Co. (Philomath, Oreg.) and were housed and cared for in compliance with the regulations of the USDA Animal Welfare Act and under the review and approval of the institution's Animal Care and Use Committee.\nPrior to placement on study, each animal underwent an ophthalmic examination (slit-lamp biomicroscopy and indirect ophthalmoscopy). […] The acceptance criteria for placement on study were scores of “0” for all variables.\nSix female New Zealand White rabbits (two per subgroup) were administered urea-encapsulated liposome constructs (58 mol % DOPC, 42 mol % cholesterol) intravitreally (IVT) as a single dose into both eyes (OU). Animals were anesthetized with an intramuscular (IM) injection of ketamine hydrochloride (30 mg/kg), xylazine (5 mg/kg), and acepromazine (3 mg/kg) followed by isoflurane by inhalation (1-2.5%) in oxygen (1 L/min). One to two drops of topical proparacaine hydrochloride anesthetic (0.5%) were applied to the animal's eyes prior to the surgical procedure. Animals were kept anesthetized with their heads stabilized for three hours post dose, with one eye facing up and the other eye facing down.\nAfter three hours, a clinical ophthalmic examination was performed, animals were euthanized. Vitreous humor (VH) was collected as 3 fractions. Pupils were dilated using one drop each of 10% phenylephrine and 1% tropicamide. Two 18G needles were inserted into the eye at the 3 o'clock and 9 o'clock position and advanced into the VH, one with the bevel pointed up towards the lens and the other with the bevel pointed down toward the retina. Three hundred μL of VH were drawn up through each needle, after which each needle was removed from the eye. The eye was then harvested and enucleated. Following enucleation, the remaining VH was collected as the third fraction. Samples from each eye in each animal remained separate and were not pooled. The weight of ocular tissues was recorded. Individual VH fractions were weighed separately. VH fractions were centrifuged at 16,100×g at room temperature for 20-30 minutes. The supernatant was separated. Pellets containing liposome constructs and supernatant were snap frozen separately on dry ice and stored at −60 to −80° C. Retina was also collected from these animals, snap frozen on dry ice, and stored at −60 to −80° C.\nTwo additional animals (one per subgroup) were administered a single or double dose of free urea solution IVT into the right eye (OD) and balanced salt solution (BSS) into the left eye (OS). Animals were anesthetized with an IM injection of ketamine hydrochloride (30 mg/kg) and xylazine (5 mg/kg). One to two drops of topical proparacaine hydrochloride anesthetic (0.5%) were applied to the animal's eyes prior to the surgical procedure.\nClinical ophthalmic examinations, fundus photography, and optical coherence tomography (OCT) were performed in these animals on Days 0-3, 4 (AM and PM), 8 (±1), 14, 21, and 28 post dose. For OCT, pupils were dilated with one drop each of 10% phenylephrine and 1% tropicamide approximately 10-15 minutes prior to imaging. Images were taken using the Spectralis® instrumentation (Heidelberg Engineering, Inc., Heidelberg, Germany)."}, "[2]": {"test_system": "eyes of New Zealand white rabbits", "conditions": "for PVD observations by OCT: OD", "experimental": "Five female New Zealand White rabbits were given a single administration of urea solution IVT into both eyes (OU) at doses of 2.5, 5, 10, 25 and 50 mg/eye.\nPrior to placement in the study, each animal underwent an ophthalmic examination (slit-lamp biomicroscopy and indirect ophthalmoscopy). Ocular findings were scored according to a modified McDonald-Shadduck Scoring System. The acceptance criteria for placement on study were scores of “0” for all variables.\nAll procedures were performed using sterile technique. Animals were anesthetized for IVT injections, OCT, and B-Scan imaging with an IM injection of ketamine hydrochloride (50 mg/kg for imaging, 15-30 mg/kg for IVT injections) and xylazine (5 mg/kg). For one animal, anesthesia was prolonged via inhaled isoflurane (1-1.5% in 1.5-2 L/min oxygen) during baseline imaging due to extended duration of imaging. For another animal, inhaled isoflurane (2% in 1.5 L/min oxygen) was used to anesthetize the animal for IVT injections, because the animal had undergone baseline imaging (which included ketamine/xylazine anesthesia) earlier in the same day. One to two drops of topical proparacaine hydrochloride anesthetic (0.5%) were applied to the animal's eyes prior to the surgical procedure.\nPrior to IVT injection, eyes were cleaned with Betadine and then rinsed with BSS. Using a ⅝ inch needle, injections were made 3 to 4 mm away from the limbus. Once the needle had been inserted, urea solution or BSS was injected. The needle was removed and the eye rinsed with BSS. Animals were recovered immediately after dosing and monitored during recovery. Triple antibiotic ophthalmic ointment was administered to the eyes during recovery.\nAnimals were euthanized on Day 35 (±4) and their eyes (whole globe) were collected and submitted for histopathological analysis.\nOphthalmic examinations (slit-lamp biomicroscopy and indirect ophthalmoscopy) were performed on Days −3 or 0 (baseline prior to test/control article administration), 1, 4, 7 or 8, 14, 21, and 35. Day 4 examinations were performed at the beginning of the workday. Day 21 examinations were performed only on Groups 1, 2, and 5. Ocular findings were scored according to a modified McDonald-Shadduck Scoring System. […] Observations included assessment of the development and time course of PVD.\nImages of the fundus were taken on Days −3 or 0 (baseline prior to drug or BSS administration), 1, 4, 7 or 8, 14, 21, and 35. Day 4 images were taken at the beginning of the workday. Day 21 images were taken only of Groups 1, 2, and 5. Animals were not anesthetized for imaging.\nOCT was performed on Days −3 or 0 (baseline prior to test/control article administration), 1, 4, 7 or 8, 14, 21, and 35. Day 4 images were taken at the beginning of the workday. Day 21 images were taken only of Groups 1, 2, and 5. Animals were anesthetized as described above. A total of 8 images per rabbit per day was acquired.\nB-Scan ultrasound images were taken on Days −3 or 0 (baseline prior to test/control article administration) and on Day 35."}}, "note": "Read-outs that look alike come from different tables or passages of the source.", "data": [{"smiles": "NC(N)=O", "note": "[urea, Urea]", "values": [{"measurement": "vitreous clouding (fundus photography)", "setting": "[1]; 96 and 192 mg/eye IVT, OD", "value": "clouding of the OD vitreous from Day 0 through Day 3"}, {"measurement": "toxicity from Day 3 onward (fundus imaging)", "setting": "[1]; 96 and 192 mg/eye IVT, OD, at the site of delivery, peaked Days 3-7", "value": "severe retinal folding and vascular hemorrhage"}, {"measurement": "retinal detachment (OCT)", "setting": "[1]; 96 and 192 mg/eye IVT, peaked between Days 3 and 7, then subsided", "value": "retina had detached mostly at the ganglion cell layer"}, {"measurement": "days on which OCT imaging showed PVD", "setting": "[1]; Subgroup 2a, 96 mg/eye IVT, OD", "value": "Day 3"}, {"measurement": "days on which OCT imaging showed PVD", "setting": "[1]; Subgroup 2b, 192 mg/eye IVT, OD", "value": "Days 4 (AM and PM), 7, and 14"}, {"measurement": "time to development of PVD", "setting": "[1]; free urea 96 mg/eye (single dose) or 192 mg/eye (double dose) IVT, OD", "value": "≤ 2", "unit": "days"}, {"measurement": "ocular irritation and swelling after IVT injection", "setting": "[1]; immediately after IVT injection, resolved over the next few days in surviving animals", "value": "ocular irritation and swelling were observed"}, {"measurement": "adverse effects on body weights and general health", "setting": "[1]; single IVT dosing, liposome constructs 56-96 mg total urea/eye, free urea 96 or 192 mg/eye", "value": "No adverse effects on body weights and no severe adverse effects on general health"}, {"measurement": "PVD in clinical ophthalmic examinations", "setting": "[2]; 2.5-50 mg/eye IVT, up to Day 35", "value": "No evidence of PVD"}, {"measurement": "PVD observations by OCT", "setting": "[2]; Group 1, 5 mg urea IVT", "value": "Partial PVD on Day 35"}, {"measurement": "PVD observations by OCT", "setting": "[2]; Group 2, 10 mg urea IVT", "value": "Partial PVD on Day 7 and beyond"}, {"measurement": "PVD in B-scan images, Day 35", "setting": "[2]; Group 4, 50 mg/eye", "value": "evidence of PVD in the right eye (OD)"}, {"measurement": "PVD observations by OCT", "setting": "[2]; Group 5, 2.5 mg urea IVT", "value": "Possible partial PVD on Day 4, none observed"}, {"measurement": "PVD in B-scan images, Day 35", "setting": "[2]; other animals (2.5, 5, 10, 25 mg/eye)", "value": "no PVD could be detected"}]}]}
